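Tested at 5 concentrations; 48 h exposure; 96-well plates; endpoints linearly interpolated, else capped at highest concentration. GI50 marks 50% less growth.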 The source made the active and inactive calls. Rule as the data show it: active = GI50 up to about 1.1 µM and inactive = higher.
Columns and labels:
Experiment in all cases: NCI anticancer screen, dose series, 48 h
SK-MEL-2 = system: SK-MEL-2
NCI-H226 = system: NCI-H226
RPMI-8226 = system: RPMI-8226
OVCAR-5 = system: OVCAR-5
SF-295 = system: SF-295
HT-29 = system: HT-29
786-0 = system: 786-0
DMS-273 = system: DMS-273
KM12 = system: KM12
OVCAR-8 = system: OVCAR-8
U-251 = system: U-251
IGROV-1 = system: IGROV-1
NCI-H522 = system: NCI-H522
SK-OV-3 = system: SK-OV-3
SNB-19 = system: SNB-19
DMS-114 = system: DMS-114
SK-MEL-5 = system: SK-MEL-5
HOP-62 = system: HOP-62
HCT-116 = system: HCT-116

Measured: GI50

COc1ccc2c(c1)[n+]([O-])c(-c1ccccc1)c(N)[n+]2[O-]
inactive: SK-MEL-2 46 µM | NCI-H226 > 100 µM | RPMI-8226 77.1 µM | OVCAR-5 94 µM | SF-295 67.1 µM | HT-29 52.7 µM | 786-0 63.2 µM | DMS-273 34.4 µM | KM12 63.4 µM | OVCAR-8 37.2 µM | U-251 31.3 µM | IGROV-1 43.4 µM | NCI-H522 17.1 µM | SK-OV-3 > 100 µM | SNB-19 42.5 µM | DMS-114 25.4 µM | SK-MEL-5 18 µM | HOP-62 39 µM

Nc1ccc2ncc(Nc3ccc(Cl)c(Cl)c3)nc2c1
inactive: SK-MEL-2 26.4 µM | NCI-H226 20.8 µM | RPMI-8226 24.5 µM | OVCAR-5 38.5 µM | SF-295 20 µM | HT-29 14.8 µM | 786-0 39.6 µM | DMS-273 23.2 µM | KM12 25.9 µM | OVCAR-8 25.5 µM | U-251 33.7 µM | NCI-H522 17.9 µM | SK-OV-3 38.9 µM | SNB-19 24.5 µM | DMS-114 13 µM | SK-MEL-5 17.5 µM | HCT-116 21.2 µM | HOP-62 42.3 µM

O=C(CSc1nnc(-c2ccc(/N=C\c3ccc(Cl)cc3)cc2)o1)Nc1ccccc1Cl
inactive: SK-MEL-2 > 100 µM | NCI-H226 > 100 µM | RPMI-8226 > 100 µM | SF-295 > 100 µM | HT-29 > 100 µM | 786-0 > 100 µM | DMS-273 > 100 µM | KM12 > 100 µM | OVCAR-8 > 100 µM | U-251 > 100 µM | NCI-H522 > 100 µM | SK-OV-3 > 100 µM | SNB-19 > 100 µM | DMS-114 > 100 µM | SK-MEL-5 > 100 µM | HCT-116 > 100 µM | HOP-62 > 100 µM

CC1(c2ccccc2)CC(c2ccccc2)=NO1 (stereo not given)
inactive: SK-MEL-2 > 100 µM | NCI-H226 > 100 µM | RPMI-8226 > 100 µM | OVCAR-5 > 100 µM | SF-295 > 100 µM | HT-29 > 100 µM | 786-0 > 100 µM | DMS-273 > 100 µM | KM12 > 100 µM | OVCAR-8 > 100 µM | U-251 > 100 µM | IGROV-1 > 100 µM | NCI-H522 > 100 µM | SK-OV-3 > 100 µM | SNB-19 > 100 µM | DMS-114 > 100 µM | SK-MEL-5 > 100 µM | HCT-116 > 100 µM | HOP-62 > 100 µM

c1ccc(CCCC2Sc3cccc4cccc(c34)S2)cc1
inactive: SK-MEL-2 > 100 µM | NCI-H226 88.3 µM | RPMI-8226 52.7 µM | OVCAR-5 > 100 µM | SF-295 > 100 µM | HT-29 78.9 µM | 786-0 > 100 µM | DMS-273 > 100 µM | KM12 > 100 µM | OVCAR-8 > 100 µM | U-251 > 100 µM | IGROV-1 > 100 µM | NCI-H522 92.7 µM | SK-OV-3 > 100 µM | SNB-19 > 100 µM | DMS-114 > 100 µM | SK-MEL-5 78.3 µM | HCT-116 > 100 µM | HOP-62 > 100 µM

Cc1cccc(C)c1N1C(=O)C(=O)C(c2nc3ccccc3s2)/C(=N/NC(=O)NN)C1=O (stereo not given)
inactive: SK-MEL-2 > 100 µM | NCI-H226 > 100 µM | SF-295 > 100 µM | HT-29 > 100 µM | 786-0 > 100 µM | DMS-273 > 100 µM | KM12 > 100 µM | OVCAR-8 > 100 µM | U-251 > 100 µM | IGROV-1 > 100 µM | NCI-H522 > 100 µM | SK-OV-3 > 100 µM | SNB-19 > 100 µM | DMS-114 > 100 µM | SK-MEL-5 > 100 µM | HCT-116 > 100 µM | HOP-62 > 100 µM

Cc1cc(=O)n2c3c(c4c(cc13)c(CO)cc(=O)n4C)OC2
inactive: SK-MEL-2 7.46 µM | NCI-H226 5.22 µM | RPMI-8226 32.1 µM | OVCAR-5 16.5 µM | SF-295 30.3 µM | HT-29 19.5 µM | 786-0 12.6 µM | DMS-273 8.85 µM | KM12 7.94 µM | OVCAR-8 6.67 µM | U-251 6.14 µM | IGROV-1 34.8 µM | NCI-H522 4.94 µM | SK-OV-3 20 µM | SNB-19 10.5 µM | DMS-114 14.1 µM | SK-MEL-5 20.1 µM | HCT-116 4.45 µM | HOP-62 13 µM

CCOC(=O)C1(c2ccccc2)CCC(=O)CC1
inactive: SK-MEL-2 > 100 µM | NCI-H226 > 100 µM | OVCAR-5 > 100 µM | SF-295 > 100 µM | HT-29 > 100 µM | 786-0 > 100 µM | DMS-273 > 100 µM | KM12 > 100 µM | OVCAR-8 > 100 µM | U-251 > 100 µM | IGROV-1 > 100 µM | NCI-H522 > 100 µM | SK-OV-3 > 100 µM | SNB-19 > 100 µM | DMS-114 > 100 µM | SK-MEL-5 > 100 µM | HCT-116 > 100 µM | HOP-62 > 100 µM

O=C(NNC(=O)c1cc(/C=C/c2cccc([N+](=O)[O-])c2)nc(S)n1)Nc1ccc(Cl)cc1
inactive: SK-MEL-2 > 100 µM | NCI-H226 > 100 µM | RPMI-8226 25.5 µM | OVCAR-5 > 100 µM | SF-295 > 100 µM | HT-29 41.8 µM | 786-0 47.8 µM | DMS-273 > 100 µM | KM12 98.9 µM | OVCAR-8 68.4 µM | U-251 14.8 µM | IGROV-1 > 100 µM | NCI-H522 22.7 µM | SK-OV-3 > 100 µM | DMS-114 30.8 µM | SK-MEL-5 86.5 µM | HCT-116 27.2 µM | HOP-62 > 100 µM

COC(=O)C1=CC2OC13CC1CCC3(C2=O)C1(C)C (stereo not given)
inactive: SK-MEL-2 15.2 µM | NCI-H226 17.1 µM | RPMI-8226 15.1 µM | OVCAR-5 19 µM | SF-295 19.6 µM | HT-29 13.2 µM | 786-0 12.2 µM | DMS-273 11.2 µM | KM12 16.5 µM | OVCAR-8 8.04 µM | U-251 12.9 µM | IGROV-1 16.7 µM | NCI-H522 2.34 µM | SK-OV-3 21 µM | SNB-19 21.6 µM | DMS-114 7.29 µM | SK-MEL-5 15.8 µM | HCT-116 11.4 µM | HOP-62 23.4 µM

CC(C)C(N)=O [ISOBUTYRAMIDE]
inactive: SK-MEL-2 > 5000 µM | NCI-H226 > 5000 µM | RPMI-8226 > 5000 µM | OVCAR-5 > 5000 µM | SF-295 > 5000 µM | HT-29 > 5000 µM | 786-0 > 5000 µM | DMS-273 > 5000 µM | KM12 > 5000 µM | OVCAR-8 > 5000 µM | U-251 > 5000 µM | IGROV-1 > 5000 µM | NCI-H522 > 5000 µM | SK-OV-3 > 5000 µM | DMS-114 > 5000 µM | SK-MEL-5 > 5000 µM | HCT-116 > 5000 µM | HOP-62 > 5000 µM

Source: ChEMBL document CHEMBL1201862, “PubChem BioAssay data set” (2004)
